What was measured:
Assay in all cases: relative viability (nuclei count vs DMSO), 5 days (fraction); higher = more cells survive
Zebularine + Vorinostat = compound: O=c1ncccn1[C@@H]1O[C@H](CO)[C@@H](O)[C@H]1O [Zebularine] + O=C(CCCCCCC(=O)Nc1ccccc1)NO [Vorinostat] (partner 1 µM)
Outline: (§1)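 Nuclei were stained with Hoechst during a one-step fixation (final 0.05% Triton X-100, 1% formaldehyde, 1 ug/ml Hoechst) carried out 5 days after dosing, then counted on 4× images. The cells, lung cancer lines in 1536-well plates, had been dosed by pin tool the day after seeding with one drug alone or a fixed anchor-drug dose plus five library-drug doses (not always all listed) in √10 steps. Relative viability is the nuclei count in treated wells divided by that in vehicle wells, and each value is the median of duplicate plates.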

Zebularine + OSI-027 = compound: O=c1ncccn1[C@@H]1O[C@H](CO)[C@@H](O)[C@H]1O [Zebularine] + COc1cccc2cc(-c3nc([C@H]4CC[C@H](C(=O)O)CC4)n4ncnc(N)c34)[nH]c12 [OSI-027] (partner 0.5 µM)
Outline: as §1

Zebularine + Alpelisib = compound: O=c1ncccn1[C@@H]1O[C@H](CO)[C@@H](O)[C@H]1O [Zebularine] + Cc1nc(NC(=O)N2CCC[C@H]2C(N)=O)sc1-c1ccnc(C(C)(C)C(F)(F)F)c1 [Alpelisib] (partner 2 µM)
Outline: as §1

Zebularine + Linsitinib = compound: O=c1ncccn1[C@@H]1O[C@H](CO)[C@@H](O)[C@H]1O [Zebularine] + C[C@]1(O)C[C@@H](c2nc(-c3ccc4ccc(-c5ccccc5)nc4c3)c3c(N)nccn32)C1 [Linsitinib] (partner 1 µM)
Outline: as §1

| Cell Line | relative viability (Zebularine + Vorinostat; first compound 1 µM) | relative viability (Zebularine + Vorinostat; first compound 3.162 µM) | relative viability (Zebularine + Vorinostat; first compound 10 µM) | relative viability (Zebularine + Vorinostat; first compound 31.62 µM) | relative viability (Zebularine + Vorinostat; first compound 100 µM) | relative viability (Zebularine + OSI-027; first compound 1 µM) | relative viability (Zebularine + OSI-027; first compound 3.162 µM) | relative viability (Zebularine + OSI-027; first compound 10 µM) | relative viability (Zebularine + OSI-027; first compound 31.62 µM) | relative viability (Zebularine + OSI-027; first compound 100 µM) | relative viability (Zebularine + Alpelisib; first compound 1 µM) | relative viability (Zebularine + Alpelisib; first compound 3.162 µM) | relative viability (Zebularine + Alpelisib; first compound 10 µM) | relative viability (Zebularine + Alpelisib; first compound 31.62 µM) | relative viability (Zebularine + Alpelisib; first compound 100 µM) | relative viability (Zebularine + Linsitinib; first compound 1 µM) | relative viability (Zebularine + Linsitinib; first compound 3.162 µM) | relative viability (Zebularine + Linsitinib; first compound 10 µM) | relative viability (Zebularine + Linsitinib; first compound 31.62 µM) | relative viability (Zebularine + Linsitinib; first compound 100 µM) |
| --- | --- | --- | --- | --- | --- | --- | --- | --- | --- | --- | --- | --- | --- | --- | --- | --- | --- | --- | --- | --- |
| ABC-1 | 1.15 | 1.02 | 0.701 | 0.835 | 0.575 | 0.522 | 0.413 | 0.401 | 0.367 | 0.443 | 1.43 | 1.01 | 0.84 | 0.891 | 0.536 | 0.678 | 0.713 | 0.572 | 0.544 | 0.481 |
| NCI-H2347 | 0.608 | 0.653 | 0.457 | 0.431 | 0.387 | 0.444 | 0.412 | 0.443 | 0.424 | 0.393 | 1.02 | 0.867 | 0.686 | 0.694 | 0.474 | 1.04 | 0.99 | 0.854 | 0.724 | 0.478 |
| NCI-H1993 | 0.73 | 0.763 | 0.754 | 0.741 | 0.559 | 0.532 | 0.545 | 0.52 | 0.543 | 0.498 | 0.666 | 0.76 |  | 0.68 | 0.699 | 0.775 | 0.637 |  | 0.795 | 0.657 |
| NCI-H322M | 0.946 | 0.873 | 1.21 | 0.945 | 0.537 | 0.524 | 0.531 | 0.47 | 0.5 | 0.521 | 0.732 | 0.756 | 0.772 | 0.673 | 0.676 | 0.945 | 0.902 | 0.721 | 0.849 | 0.685 |
| NCI-H838 | 0.712 | 0.723 | 0.654 | 0.859 | 0.402 | 0.405 | 0.377 | 0.355 | 0.348 | 0.258 | 1.04 | 1.05 | 0.707 | 0.857 | 0.404 | 1.14 | 1.02 | 0.733 | 0.751 | 0.319 |
| HARA | 0.613 | 0.541 |  | 0.323 | 0.213 | 0.367 |  |  | 0.42 | 0.245 | 1.01 | 0.804 |  | 0.818 | 0.572 | 1.01 | 0.923 |  | 0.968 | 0.623 |
| NCI-H2087 | 1.1 | 0.652 | 0.285 | 0.667 | 0.303 | 0.379 | 0.457 | 0.286 | 0.508 | 0.27 | 1.31 | 1.01 | 0.684 | 0.778 | 0.309 | 1.11 | 1.09 | 0.501 | 0.67 | 0.29 |
| NCI-H1437 | 1.02 | 0.899 | 0.727 | 0.911 | 0.55 | 0.926 | 0.933 | 0.761 | 0.859 | 0.611 | 1.16 | 1.03 |  | 1.14 | 0.319 | 1.18 | 1.2 |  | 0.989 | 0.342 |
| NCI-H650 | 0.398 | 0.376 | 0.343 | 0.297 | 0.225 | 0.54 | 0.524 | 0.437 | 0.356 | 0.26 | 1.04 | 1.2 | 0.894 | 0.462 | 0.319 | 0.931 | 0.755 | 0.467 | 0.43 | 0.374 |
| COR-L23 | 0.511 | 0.475 | 0.389 | 0.299 | 0.174 | 1.07 | 0.794 | 0.383 | 0.452 | 0.236 | 0.872 | 0.926 | 0.431 | 0.361 | 0.265 | 0.977 | 1.05 | 0.448 | 0.493 | 0.211 |
| COR-L 105 | 1.38 | 0.898 | 0.734 | 0.945 | 0.619 | 0.763 | 0.642 | 0.566 | 0.697 | 0.684 | 1.24 | 0.952 | 0.807 | 0.96 | 1.1 | 0.986 | 0.956 | 0.928 | 1.22 | 0.939 |
| LK-2 | 0.277 | 0.315 | 0.209 | 0.177 | 0.28 | 0.187 | 0.181 | 0.195 | 0.202 | 0.162 | 1.15 | 1.29 | 0.541 | 0.665 | 0.407 | 0.52 | 0.564 | 0.371 | 0.35 | 0.218 |
| 201T | 0.944 | 0.921 | 0.955 | 1.05 | 1.02 | 0.602 | 0.691 | 0.517 | 0.592 | 0.378 | 1.07 | 1.06 | 0.859 | 0.992 | 0.877 | 1.13 | 1.02 | 1.05 | 1.09 | 1.04 |
| HCC-44 | 1.15 | 1.14 | 1.09 | 1.19 | 0.553 | 0.627 | 0.462 | 0.435 | 0.398 | 0.364 | 0.818 | 0.938 | 0.463 | 0.639 | 0.265 | 0.77 | 0.655 | 0.466 | 0.577 | 0.218 |
| NCI-H596 | 0.628 | 0.598 | 0.358 | 0.577 | 0.612 | 0.696 | 0.78 | 0.593 | 0.708 | 0.559 | 0.476 | 0.462 | 0.427 | 0.566 | 0.483 | 1.03 | 1.04 | 0.832 | 1.06 | 1.01 |
| H3255 | 0.793 | 0.864 |  | 0.795 | 0.75 | 0.605 | 0.522 | 0.43 | 0.689 | 0.487 | 0.664 | 0.734 | 0.422 | 0.716 | 0.673 | 0.979 | 1.05 |  | 0.956 | 1 |
| NCI-H647 | 0.481 | 0.586 | 0.165 | 0.165 | 0.12 | 0.717 | 0.676 | 0.363 | 0.186 | 0.16 | 1.05 | 0.932 | 0.422 | 0.246 | 0.167 | 1.42 | 1.06 | 0.426 | 0.172 | 0.17 |

From the supplement of paper PMC10307832
